# In patent US7964560B2, “Hepatitis C virus inhibitors” (Bristol-Myers Squibb Company, priority 2008, dated 2011):
# Where two headings read alike, the source gives them in different places.
# What was measured:
# [1] = tested on: HCV replicon in HUH-7 cells; test: HCV replicon FRET assay; assay type: cell-based, Hepatitis C virus (strain 1b); settings: Hepatitis C virus
# Text: An HCV replicon whole cell system was established as described by Lohmann, V. et al., Science, 285(5424):110-113 (1999). This system enabled us to evaluate the effects of our HCV Protease compounds on HCV RNA replication. Briefly, using the HCV strain 1b sequence described in the Lohmann paper (Accession number: AJ238799), an HCV cDNA was synthesized by Operon Technologies, Inc. (Alameda, Calif.), and the full-length replicon was then assembled in plasmid pGem9zf(+) (Promega, Madison, Wis.) using standard molecular biology techniques. The replicon consists of (i) the HCV 5′ UTR fused to the first 12 amino acids of the capsid protein, (ii) the neomycin phosphotransferase gene (neo), (iii) the IRES from encephalomyocarditis virus (EMCV), and (iv) HCV NS3 to NS5B genes and the HCV 3′ UTR. Plasmid DNAs were linearized with ScaI and RNA transcripts were synthesized in vitro using the T7 MegaScript transcription kit (Ambion, Austin, Tex.) according to manufacturer's directions. In vitro transcripts of the cDNA were transfected into the human hepatoma cell line, HUH-7. […] Resulting cell lines were characterized for positive and negative strand RNA production and protein production over time.
# The HCV replicon FRET assay was developed to monitor the inhibitory effects of compounds described in the disclosure on HCV viral replication. HUH-7 cells, constitutively expressing the HCV replicon, were grown in Dulbecco's Modified Eagle Media (DMEM) (Gibco-BRL) containing 10% Fetal calf serum (FCS) (Sigma) and 1 mg/ml G418 (Gibco-BRL). Cells were seeded the night before (1.5×10^4 cells/well) in 96-well tissue-culture sterile plates. Compound and no compound controls were prepared in DMEM containing 4% FCS, 1:100 Penicillin/Streptomysin (Gibco-BRL), 1:100 L-glutamine and 5% DMSO in the dilution plate (0.5% DMSO final concentration in the assay). Compound/DMSO mixes were added to the cells and incubated for 4 days at 37° C. After 4 days, cells were first assessed for cytotoxicity using alamar Blue (Trek Diagnostic Systems) for a CC50 reading. The toxicity of compound (CC50) was determined by adding 1/10th volume of alamar Blue to the media incubating the cells. After 4 h, the fluorescence signal from each well was read, with an excitation wavelength at 530 nm and an emission wavelength of 580 nm, using the CYTOFLUOR® Series 4000 (Perspective Biosystems). Plates were then rinsed thoroughly with Phosphate-Buffered Saline (PBS) (3 times 150 μl). The cells were lysed with 25 μl of a lysis assay reagent containing an HCV protease substrate (5× cell Luciferase cell culture lysis reagent (PROMEGA® #E153A) diluted to 1× with distilled water, NaCl added to 150 mM final, the FRET peptide substrate (as described for the enzyme assay above) diluted to 10 μM final from a 2 mM stock in 100% DMSO. The plate was then placed into the CYTOFLUOR® 4000 instrument which had been set to 340 nm excitation/490 nm emission, automatic mode for 21 cycles and the plate read in a kinetic mode. EC50 determinations were carried out as described for the IC50 determinations.
# [2] = tested on: HCV replicon (Renilla luciferase reporter) in HUH-7 cells; test: HCV replicon luciferase reporter assay; assay type: cell-based, Hepatitis C virus (strain 1b); settings: Huh-7, 96 h, 4 days
# [3] = target: T1, human neutrophil elastase (HNE) (Homo sapiens, UniProt P08246); test: Specificity assay, human neutrophil elastase; assay type: biochemical; settings: read-out: HLE (specificity assay IC50)
# T1 construct: purchased Sigma, EMDbiosciences
# T1 sequence (P08246 30-267): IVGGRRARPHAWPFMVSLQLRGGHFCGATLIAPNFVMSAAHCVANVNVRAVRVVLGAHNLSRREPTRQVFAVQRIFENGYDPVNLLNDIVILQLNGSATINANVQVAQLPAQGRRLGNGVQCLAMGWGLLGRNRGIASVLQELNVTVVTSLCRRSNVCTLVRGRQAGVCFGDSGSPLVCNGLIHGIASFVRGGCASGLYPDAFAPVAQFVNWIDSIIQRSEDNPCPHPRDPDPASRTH
# Description: (§1) The specificities of compounds of the present disclosure were determined against a variety of serine proteases: human neutrophil elastase (HNE), porcine pancreatic elastase (PPE) and human pancreatic chymotrypsin and one cysteine protease: human liver cathepsin B. In all cases a 96-well plate format protocol using a fluorometric Amino-Methyl-Coumarin (AMC) substrate specific for each enzyme was used as described previously (PCT Patent Application No. WO 00/09543) with some modifications to the serine protease assays. All enzymes were purchased from Sigma, EMDbiosciences while the substrates were from Bachem, Sigma and EMDbiosciences.
# (§2) Compound concentrations varied from 100 to 0.4 μM depending on their potency. The enzyme assays were each initiated by addition of substrate to enzyme-inhibitor pre-incubated for 10 min at room temperature and hydrolysis to 15% conversion as measured on CYTOFLUOR®.
# 50 mM Tris-HCl, pH 8.0, 50 mM NaCl, 0.1 mM […], 3% DMSO, 0.02% Tween-20, 5 μM succ-AAPV-AMC and 20 nM HNE or 8 nM PPE;
# (§3) The percentage of inhibition was calculated using the formula: [1−((UVinh−UVblank)/(UVctl−UVblank))]×100
# (§4) A non-linear curve fit was applied to the inhibition-concentration data, and the 50% effective concentration (IC50) was calculated by the use of Excel XLfit software.
# [4] = target: T2, human pancreatic chymotrypsin (Homo sapiens, UniProt P17538); test: Specificity assay, chymotrypsin; assay type: biochemical
# T2 construct: purchased Sigma, EMDbiosciences
# Description: as §1, §2
# 50 mM Tris(hydroxymethyl)aminomethane hydrochloride (Tris-HCl) pH 8, 0.5 M Sodium Sulfate (Na2SO4), 50 mM NaCl, 0.1 mM EDTA, 3% DMSO, 0.01% Tween-20 with 5 μM LLVY-AMC and 1 nM Chymotrypsin.
# as §3, §4
# human liver cathepsin B = target: T3, human liver cathepsin B (Homo sapiens, UniProt P07858); test: Specificity assay, cathepsin B; assay type: biochemical
# T3 construct: purchased Sigma, EMDbiosciences; host or cells: human liver
# Description: as §1, §2
# 100 mM NaOAC (Sodium Acetate) pH 5.5, 3% DMSO, 1 mM TCEP (Tris(2-carboxyethyl)phosphine hydrochloride), 5 nM Cathepsin B (enzyme stock activated in buffer containing 20 mM TCEP before use), and 2 μM Z-FR-AMC diluted in H2O.
# as §3, §4
# T2 sequence (P17538 19-263): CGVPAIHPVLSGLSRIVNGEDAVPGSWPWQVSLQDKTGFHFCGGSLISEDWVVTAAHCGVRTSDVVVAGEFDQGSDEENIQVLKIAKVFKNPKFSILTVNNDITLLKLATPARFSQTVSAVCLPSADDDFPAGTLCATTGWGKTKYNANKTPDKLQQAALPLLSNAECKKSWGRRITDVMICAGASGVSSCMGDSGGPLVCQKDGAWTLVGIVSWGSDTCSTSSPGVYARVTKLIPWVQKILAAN
compound,measurement,setting,value
"C=C[C@@H]1C[C@]1(NC(=O)[C@@H]1C[C@@](SCCCC)(c2ccc(-c3ccccc3)cc2)CN1C(=O)[C@@H](NC(=O)OC(C)(C)C)C(C)(C)C)C(=O)NS(=O)(=O)C1CC1 [Example 1, tert-butyl (S)-1-((2S,4R)-4-(biphenyl-4-yl)-4-(butylthio)-2-((1R,2S)-1-(cyclopropylsulfonylcarbamoyl)-2-vinylcyclopropylcarbamoyl)pyrrolidin-1-yl)-3,3-dimethyl-1-oxobutan-2-ylcarbamate]",EC50,"[1]; 96 h, HUH-7 replicon cells, 4 days, read-out: EC50 value in the replicon FRET assay",7.3 nM
same,EC50,[1]; Huh-7,7.2 to 22 nM
same,EC50,[2],6 nM
same,IC50,[3],> 12100 nM
same,IC50,[4],13200 nM
same,IC50,human liver cathepsin B,7500 nM
